Measured values taken from article PMC6000670, “Dihydropyridines Allosterically Modulate Hsp90 Providing a Novel Mechanism for Heat Shock Protein Co-induction and Neuroprotection” (Frontiers in Molecular Biosciences, 2018).
Where two headings read alike, the source gives them in different places.

Legend:
yeast Hsp90^273−709 = yeast Hsp90^273−709 (Saccharomyces cerevisiae, UniProt P02829); test: ITC binding to yeast Hsp90 273-709 (middle and C-terminal domain); conditions: for ΔH / ΔS: ITC, Yeast 273–709
[1] = target: human Hsp90α N-terminal domain (Hsp90^9−236) (Homo sapiens, UniProt P07900); test: ITC binding to human Hsp90α N-terminal domain; conditions: isolated N-terminal domain of human Hsp90α
Hsp90^1−560 = Hsp90^1−560 (Saccharomyces cerevisiae, UniProt P02829); test: ITC binding to yeast Hsp90 1-560 (N and middle domain); conditions: Hsp90 1−560, N- and middle-domain of yeast Hsp90
[2] = target: Hsp90-AMPPNP-Sba1 complex (Saccharomyces cerevisiae, UniProt P02829); test: ITC binding to Hsp90-AMPPNP-Sba1 complex
human Hsp90β = human Hsp90β (Homo sapiens, UniProt P08238); test: ITC binding to human full-length Hsp90β
yeast Hsp90^546−709 = yeast Hsp90^546−709 (Saccharomyces cerevisiae, UniProt P02829); test: ITC binding to yeast Hsp90 546-709 (C-terminal domain)
Hsp90 = test: Refolding of denatured luciferase in rabbit reticulocyte lysate; type: biochemical
Method: QuantiLum Luciferase (Promega E170A) was diluted to 100 ug/mL in 25 mM Tricine pH 7.8, containing 10 mM MgCl2, 1 mM DTT, 0.1 mM EDTA, 10% glycerol, and 100 mg/mL BSA (sigma 05470) and denatured at 44°C for 30 min. […] Refolding of luciferase was determined by removing 2 μL aliquots of the rabbit reticulocyte mix at 0, 15, 30 45, 60, 90, and 120 min and adding this to 48 μL of Briglt-Glo^TM reconstituted reagent (Promega, E2610), which contains buffer, substrate and ATP required for luciferase activity, as instructed by the manufacturer. Luminescence was measured in a CLARIOstar^R microplate reader using half area 96 well flat bottom plates.

yeast Hsp90 [3] = target: T1, yeast Hsp90 (Saccharomyces cerevisiae, UniProt P02829); test: Citrate synthase aggregation assay
[4] = test system: SH-SY5Y human neuroblastoma cell line; design: method as in Kasza et al., 2016; conditions: ref Kasza et al., 2016; cited from earlier work
[5] = test system: APPxPS1 transgenic mouse model of AD; design: method as in Kasza et al., 2016; conditions: ref Kasza et al., 2016, cited from earlier work
[6] = target: T2, yeast Hsp90 N-terminal domain (Hsp90^1−220) (Saccharomyces cerevisiae, UniProt P02829); test: ITC binding to yeast Hsp90 N-terminal domain; conditions: isolated N-terminal domain of yeast Hsp90
T2 construct: Hsp90^1−220 (N-terminal domain); made in house

yeast Hsp90-P661R = yeast Hsp90-P661R (Saccharomyces cerevisiae, UniProt P02829, P661R); test: ITC binding to yeast Hsp90 mutant P661R
[7] = target: yeast Hsp90–AMPPNP complex (Saccharomyces cerevisiae, UniProt P02829); test: ITC binding to yeast Hsp90-AMPPNP complex
human Hsp90α = human Hsp90α (Homo sapiens, UniProt P07900); test: ITC binding to human full-length Hsp90α
yeast Hsp90-ADP complex = yeast Hsp90-ADP complex (Saccharomyces cerevisiae, UniProt P02829); test: ITC binding to yeast Hsp90-ADP complex
human Hsp72 = human Hsp72 (Homo sapiens, UniProt P0DMV8); test: ITC binding to human Hsp72; conditions: 1 mM LA1011 into 60 μM human Hsp72
yeast Hsp90 [8] = target: T1, yeast Hsp90; test: ITC binding to yeast full-length Hsp90
yeast Hsp90 [9] = target: T1, yeast Hsp90; test: Hsp90 ATPase assay
yeast Hsp90 [10] = target: T1, yeast Hsp90; design: pRSETA was used to express yeast full–length Hsp90; made in house; method as in Prodromou et al., 1999; conditions: Sti1 to yeast Hsp90 without LA1011; ref Prodromou et al., 1999; cited from earlier work
[11] = 2 μM yeast Hsp90, non-inhibited turnover 1.2 per min

Chain of yeast Hsp90^546−709 (P02829 546-709): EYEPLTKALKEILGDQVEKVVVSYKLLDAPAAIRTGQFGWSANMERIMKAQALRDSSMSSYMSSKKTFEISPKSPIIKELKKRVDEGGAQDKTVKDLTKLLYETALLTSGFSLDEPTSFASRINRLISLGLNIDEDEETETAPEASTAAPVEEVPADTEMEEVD
Chain of yeast Hsp90^273−709 (P02829 273-709): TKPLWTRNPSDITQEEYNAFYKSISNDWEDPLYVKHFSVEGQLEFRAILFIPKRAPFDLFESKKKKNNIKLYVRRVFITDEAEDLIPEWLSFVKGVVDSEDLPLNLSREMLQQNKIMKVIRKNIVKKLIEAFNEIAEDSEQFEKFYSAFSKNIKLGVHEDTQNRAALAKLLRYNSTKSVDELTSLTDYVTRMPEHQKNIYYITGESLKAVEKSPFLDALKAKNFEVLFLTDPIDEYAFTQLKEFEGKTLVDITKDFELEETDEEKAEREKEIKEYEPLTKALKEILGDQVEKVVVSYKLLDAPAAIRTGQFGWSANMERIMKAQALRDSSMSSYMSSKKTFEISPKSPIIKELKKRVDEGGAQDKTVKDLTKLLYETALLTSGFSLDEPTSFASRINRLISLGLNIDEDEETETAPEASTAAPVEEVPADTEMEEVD
Chain of human Hsp90β (P08238 whole entry, the tested form may be a part): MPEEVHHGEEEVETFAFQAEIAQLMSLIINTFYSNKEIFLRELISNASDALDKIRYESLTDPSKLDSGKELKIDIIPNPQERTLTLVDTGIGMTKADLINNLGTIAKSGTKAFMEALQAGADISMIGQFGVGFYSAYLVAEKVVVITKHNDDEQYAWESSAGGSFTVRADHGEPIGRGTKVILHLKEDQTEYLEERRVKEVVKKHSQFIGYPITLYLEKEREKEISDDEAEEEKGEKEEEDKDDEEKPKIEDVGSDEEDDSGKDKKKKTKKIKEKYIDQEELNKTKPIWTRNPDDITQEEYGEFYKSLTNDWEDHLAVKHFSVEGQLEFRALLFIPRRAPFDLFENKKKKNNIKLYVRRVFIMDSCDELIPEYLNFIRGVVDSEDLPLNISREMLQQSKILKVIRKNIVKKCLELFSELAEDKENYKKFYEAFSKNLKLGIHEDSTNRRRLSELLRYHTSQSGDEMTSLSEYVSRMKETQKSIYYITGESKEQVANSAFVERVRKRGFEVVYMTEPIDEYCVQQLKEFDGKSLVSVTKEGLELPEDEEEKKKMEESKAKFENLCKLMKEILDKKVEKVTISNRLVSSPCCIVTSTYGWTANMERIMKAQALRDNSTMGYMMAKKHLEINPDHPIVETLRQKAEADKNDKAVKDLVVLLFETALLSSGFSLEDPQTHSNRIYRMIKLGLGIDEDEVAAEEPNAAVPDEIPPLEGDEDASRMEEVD
T1 sequence (P02829 whole entry): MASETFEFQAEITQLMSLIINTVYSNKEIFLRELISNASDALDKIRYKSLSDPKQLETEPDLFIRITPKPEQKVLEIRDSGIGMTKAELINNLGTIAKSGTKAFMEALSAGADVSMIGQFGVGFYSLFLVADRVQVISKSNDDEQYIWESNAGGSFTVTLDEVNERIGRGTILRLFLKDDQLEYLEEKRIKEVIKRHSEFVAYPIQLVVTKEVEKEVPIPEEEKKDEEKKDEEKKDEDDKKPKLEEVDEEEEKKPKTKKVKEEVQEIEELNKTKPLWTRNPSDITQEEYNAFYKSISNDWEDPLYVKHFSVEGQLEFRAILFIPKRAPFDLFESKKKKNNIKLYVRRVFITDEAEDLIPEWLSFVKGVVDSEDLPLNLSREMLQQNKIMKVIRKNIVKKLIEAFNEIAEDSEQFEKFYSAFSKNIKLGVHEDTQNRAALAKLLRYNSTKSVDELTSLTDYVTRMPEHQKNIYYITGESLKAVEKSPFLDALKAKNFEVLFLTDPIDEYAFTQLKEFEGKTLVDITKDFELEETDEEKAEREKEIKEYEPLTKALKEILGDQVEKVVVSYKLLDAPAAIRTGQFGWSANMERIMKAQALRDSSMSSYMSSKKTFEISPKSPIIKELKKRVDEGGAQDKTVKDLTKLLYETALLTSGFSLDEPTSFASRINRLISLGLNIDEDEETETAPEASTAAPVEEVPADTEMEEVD
Chain of yeast Hsp90–AMPPNP complex (P02829 whole entry, one chain of several): as the sequence (P02829 whole entry) above
Chain of Hsp90^1−560 (P02829 1-560): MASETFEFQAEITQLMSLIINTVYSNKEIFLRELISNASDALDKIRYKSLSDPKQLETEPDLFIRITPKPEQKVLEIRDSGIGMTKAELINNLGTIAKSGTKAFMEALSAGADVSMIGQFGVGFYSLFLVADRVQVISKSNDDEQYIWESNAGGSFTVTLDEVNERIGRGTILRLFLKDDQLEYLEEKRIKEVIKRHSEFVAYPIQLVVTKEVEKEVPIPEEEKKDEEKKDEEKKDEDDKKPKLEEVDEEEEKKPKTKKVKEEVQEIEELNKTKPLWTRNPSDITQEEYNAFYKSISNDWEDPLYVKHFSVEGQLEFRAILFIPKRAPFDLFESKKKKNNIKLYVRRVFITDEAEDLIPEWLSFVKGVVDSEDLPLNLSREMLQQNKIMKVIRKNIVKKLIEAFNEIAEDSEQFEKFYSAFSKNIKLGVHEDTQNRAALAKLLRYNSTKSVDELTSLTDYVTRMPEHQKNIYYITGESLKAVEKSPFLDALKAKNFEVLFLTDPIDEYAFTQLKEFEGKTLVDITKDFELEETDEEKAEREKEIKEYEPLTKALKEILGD
T2 sequence (P02829 1-220): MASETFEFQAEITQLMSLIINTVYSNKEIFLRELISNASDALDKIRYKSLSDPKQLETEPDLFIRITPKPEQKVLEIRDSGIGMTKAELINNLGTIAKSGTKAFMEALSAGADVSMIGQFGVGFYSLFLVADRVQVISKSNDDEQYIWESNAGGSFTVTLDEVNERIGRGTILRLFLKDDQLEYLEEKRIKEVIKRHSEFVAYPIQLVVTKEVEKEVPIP
Chain of human Hsp72 (P0DMV8 whole entry): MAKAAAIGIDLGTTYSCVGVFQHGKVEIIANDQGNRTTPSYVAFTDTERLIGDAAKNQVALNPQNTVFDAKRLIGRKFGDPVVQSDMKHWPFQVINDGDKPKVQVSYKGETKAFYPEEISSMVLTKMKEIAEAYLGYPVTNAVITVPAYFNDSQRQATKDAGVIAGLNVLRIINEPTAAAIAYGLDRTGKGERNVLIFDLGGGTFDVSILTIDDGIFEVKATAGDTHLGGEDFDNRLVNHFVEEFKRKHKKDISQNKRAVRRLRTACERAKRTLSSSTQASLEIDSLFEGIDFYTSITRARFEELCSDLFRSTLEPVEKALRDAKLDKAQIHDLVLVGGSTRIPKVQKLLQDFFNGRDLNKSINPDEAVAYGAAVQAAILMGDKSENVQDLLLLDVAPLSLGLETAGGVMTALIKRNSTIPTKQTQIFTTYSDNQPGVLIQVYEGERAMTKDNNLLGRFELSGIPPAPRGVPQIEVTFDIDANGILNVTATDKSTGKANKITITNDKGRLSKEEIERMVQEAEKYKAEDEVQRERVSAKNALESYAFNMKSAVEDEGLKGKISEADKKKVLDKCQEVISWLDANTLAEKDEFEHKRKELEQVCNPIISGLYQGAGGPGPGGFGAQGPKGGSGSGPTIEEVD
Chain of yeast Hsp90-ADP complex (P02829 whole entry, one chain of several): as the sequence (P02829 whole entry) above

## COC(=O)C1=C(CCN(C)C)N(C)C(CCN(C)C)=C(C(=O)OC)C1c1ccc(C(F)(F)F)cc1 [LA1011]
Yeast Hsp90^273−709
  Kd: 9.7 ± 0.7 µM
  ΔH: -5.11 ± 0.187 kcal/mol
  ΔS: 6.07 cal/mol/Deg
[1]
  binding: failed to bind
Hsp90^1−560
  binding: failed to bind
[2]
  Kd: 23.1 ± 1.9 µM
Human Hsp90β
  Kd: 9.7 ± 0.7 µM
Human Hsp90β; ITC, Hsp90β
  ΔH: -0.6549 ± 0.0435 kcal/mol
  ΔS: 20.8 cal/mol/Deg
Human Hsp90β; ITC, human Hsp90β
  N (stoichiometry): 0.27
Yeast Hsp90^546−709
  Kd: 60.6 ± 7.9 µM
Yeast Hsp90^546−709; ITC, Yeast 546–709
  ΔH: -2.603 ± 0.706 kcal/mol
  ΔS: 10.7 cal/mol/Deg
Hsp90; 1 mM LA1011, rabbit reticulocyte lysate
  inhibition of luciferase refolding: around 50%
Hsp90; 5 mM LA1011, rabbit reticulocyte lysate
  refolding of luciferase: completely prevented refolding of luciferase
Yeast Hsp90 [3]; 0.1–0.2 mM LA1011, 600 nM Hsp90, 45°C
  disruption of Hsp90's ability to protect citrate synthase from aggregation: around 50%
Yeast Hsp90 [3]; calculated as [ligand]/[ligand]+Kd, Kd 13 μM, at 0.1–0.2 mM LA1011
  fractional occupancy: 88–93%
[4]
  heat shock protein co-induction: co-inducers of Hsp70 and Hsp27
[5]; APPxPS1 transgenic mouse model of AD
  neuroprotective effect: could protect neurons in the hippocampus, could decrease Tau-accumulation and was able to preserve dendritic spines
[5]; mouse models
  levels that had an effect in mouse models: 5 to 10 µM
[6]
  binding: failed to bind
Yeast Hsp90-P661R
  Kd: 80.6 ± 19 µM
[7]
  Kd: 66.2 ± 21.4 µM
[7]; in the presence of ATP
  LA1011 required to achieve 88% occupancy: 0.5 mM
Human Hsp90α
  Kd: 3.8 ± 0.7 µM
Human Hsp90α; ITC, Hsp90α
  ΔH: -0.792 ± 0.0807 kcal/mol
  ΔS: 22.2 cal/mol/Deg
Human Hsp90α; ITC, human Hsp90α
  N (stoichiometry): 0.35
Yeast Hsp90-ADP complex
  Kd: 66.2 ± 29.7 µM
Human Hsp72
  binding: did not interact
Yeast Hsp90 [8]
  Kd: 13.5 ± 0.9 µM
Yeast Hsp90 [8]; ITC, Yeast Hsp90
  N (stoichiometry): 0.53
  ΔH: -4.863 ± 0.194 kcal/mol
  ΔS: 6.24 cal/mol/Deg
Yeast Hsp90 [8]; in the absence of ATP
  LA1011 required to achieve 88% occupancy: 100 µM
Yeast Hsp90 [9]; [11]
  effect on ATPase activity of Hsp90: activated the ATPase activity
Yeast Hsp90 [9]; 10 μM LA1011
  effect on ATPase activity of Hsp90: marginal effects
Yeast Hsp90 [9]; 240 μM LA1011
  stimulation of the ATPase: 2 fold

## COC(=O)C1=C(C)N(C)C(CCN2CCOCC2)=C(C(=O)OC)C1c1ccc(C(F)(F)F)cc1 (stereo not drawn) [LA1014]
Yeast Hsp90^273−709
  Kd: 20.2 ± 3 µM
  ΔH: -0.8714 ± 0.145 kcal/mol
  ΔS: 18.6 cal/mol/Deg
Yeast Hsp90 [9]; [11]
  effect on ATPase activity of Hsp90: activated the ATPase activity

## COC(=O)C1=C(CCN(C)C)N(C)C(CCN(C)C)=C(C(=O)OC)C1c1cc(F)cc(F)c1 [LA1026]
Yeast Hsp90^273−709
  Kd: 48.8 ± 4.7 µM
  ΔH: -1.233 ± 0.21 kcal/mol
  ΔS: 15.7 cal/mol/Deg
Yeast Hsp90 [9]; [11]
  effect on ATPase activity of Hsp90: activated the ATPase activity

## COC1=C2C[C@@H](C)C[C@H](OC)[C@H](O)[C@@H](C)/C=C(\C)[C@H](OC(N)=O)[C@@H](OC)/C=C\C=C(/C)C(=O)NC(=CC1=O)C2=O [geldanamycin, reference compound]
Yeast Hsp90 [9]; [11]
  effect on ATPase activity of Hsp90: inhibition of Hsp90 ATPase activity

## Sti1: yeast co-chaperone of Hsp90
Yeast Hsp90 [10]
  Kd: 0.33 ± 0.03 µM
